Measurements taken from PMC3376404 (Bioorganic & medicinal chemistry letters, 2012).
Where “and” joins values, the source holds several entries; their conditions need not be identical. Equal values may be shown once. Read-outs that look alike come from different tables or passages of the source.

What was measured:
Decomposition = assay type: physicochemical; settings: for kobs (apparent rate constant for decomposition): no thiol, compound 70 μM, MOPS 250 mM, pH 7, MeCN 25% v/v, 24 °C
[1] = Reaction with the biological thiol glutathione; assay type: physicochemical; settings: for kobs (pseudo-first-order rate constant, + thiol): compound 70 μM, 24 °C; for kobs (pseudo-first-order rate constant, + thiol) / second-order rate constant for reaction with GSH: GSH 700 μM, MOPS 300 mM, pH 7, MeCN 25% v/v; for second-order rate constant for reaction with GSH: estimated from kobs
[2] = 100 μM 1 in HEPES, 250 mM, pH 7, 24 °C, no organic co-solvent; cited from earlier work
[3] = HEPES buffer, 50 mM, pH 7, 24 °C, no organic co-solvent; cited from earlier work

Row | Compound | kobs (apparent rate constant for decomposition) (Decomposition) | times more stable than 5 against decomposition in aqueous buffer (Decomposition; relative to 5) | times more stable than 6 against decomposition in aqueous buffer (Decomposition; relative to 6) [times] | kobs (pseudo-first-order rate constant, + thiol) [1] | second-order rate constant for reaction with GSH [1] [M⁻¹ s⁻¹] | times less reactive toward GSH than compound 5 ([1]; relative to 5) [times] | rate constant (decomposition) [2] [min⁻¹] | t1/2 (decomposition) [2] [h] | second-order rate constant for reaction with GSH [3] [M⁻¹ s⁻¹] | kobs (decomposition) (Decomposition; 300 mM MOPS, pH 7.0) | kobs (decomposition) (Decomposition; 500 mM MOPS) | kobs (decomposition) (Decomposition; pH 6.5, 300 mM MOPS) [min⁻¹] | kobs (decomposition) (Decomposition; pH 7.5, 300 mM MOPS) [min⁻¹] | stability relative to the cis isomer in aqueous buffered solution (Decomposition; trans isomer 6 versus cis isomer 5)
1 | C/C1=C\[C@@H](O)C(=O)/C=C/C=C\c2csc(n2)[C@@H](C)NC(=O)C[C@@]2(CC1)[S+]([O-])SC(=O)[C@]2(C)O (some centres unmarked) [Compound 1, Leinamycin, reference compound] | 0.408 ± 0.001 × 10^−3 min^-1 | approximately 30 times | ~15 | 6.67 ± 0.01 × 10^−2 min^-1 | 1.58 | 3.6 | 0.00072 | 16.1 | 10.4 |  |  |  |  | 
2 | CC1(C)[S+]([O-])SC(=O)[C@@]1(C)O (some centres unmarked) [Compound 5, 4-hydroxy-4,5,5-trimethyl-1,2-dithiolan-3-one-1-oxide] | 13.2 ± 0.01 × 10^−3 min^-1 |  |  | 24.3 ± 0.1 × 10^−2 min^-1 | 5.73 |  |  |  |  |  |  |  |  | 
3 | CC1(C)[S+]([O-])SC(=O)[C@]1(C)O (some centres unmarked) [Compound 6, 4-hydroxy-4,5,5-trimethyl-1,2-dithiolan-3-one-1-oxide] | 6.2 ± 0.6 × 10^−3 min^-1 |  |  | 18.3 ± 0.2 × 10^−2 min^-1 | 4.35 |  |  |  |  | 1.5 ± 0.2 × 10^−2 min^-1 and 1.5 × 10^−2 min^-1 | 1.9 ± 0.2 × 10^−2 min^-1 | 0.0087 | 0.047 | approximately two times more stable
